According to publication PMC7313537 (PLoS ONE, 2020):

Columns and labels:
NLK = NLK (Homo sapiens, UniProt Q9UBE8); experiment: Enzyme selectivity panel; assay type: biochemical; conditions: 1 mM ATP
Procedure: (§1) The kinase assays were carried out at room temperature in HEPES 50 mM, pH 7.0, NaN3 0.02%, BSA 0.01%, Orthovanadate 0.1 mM, DTT 1 mM, MgCl2 10 mM in a final volume of 10 µL. Test compounds were transferred to the plate wells by ECHO liquid handler (Labcyte, San Jose, CA) with 0.5% dimethyl sulfoxide (DMSO) in the final assay. Peptide/kinase mixtures were diluted in the appropriate enzymatic buffer and 5µL of the mixture was added to a 384-well small volume black plate. Reactions were initiated by the addition of 5 µL ATP in reaction buffer, the final reaction mixture consisted of 500 nM peptide substrate, 1 mM ATP, and appropriate amount of specific kinase. […] The plates were then sealed and centrifuged at 1800 rpm for 2 minutes. […] Half maximal inhibitory concentration (IC50) determination was performed by fitting the curve of percent control activity versus the log of the compound concentration using the GraphPad Prism 6.0 software.

JNK1 = JNK1 (Homo sapiens, UniProt P45983); experiment: Enzyme selectivity panel; assay type: biochemical; conditions: 1 mM ATP
Procedure: as §1

MINK = MINK (Homo sapiens, UniProt Q8N4C8); experiment: Enzyme selectivity panel; assay type: biochemical; conditions: 1 mM ATP
Procedure: as §1

EPHB4 = target: T1, EPHB4 (Homo sapiens, UniProt P54760); experiment: Enzyme selectivity panel; assay type: biochemical; conditions: 1 mM ATP
T1 construct: purchased In-house HTRF panel (56 kinases) and PerkinElmer (161-kinase panel)
Procedure: as §1

[1] = system: phospho-FRS2 and phospho-ERK in RT-4 cells (FGFR3-TACC3); experiment: Western blot of FGFR pathway markers; assay type: cell-based; conditions: 2 hours
Excerpt: All antibodies were purchased from commercial sources as follows: antibodies against FGFR1 (monoclonal [rabbit], catalogue no. 9740, Antibody Registry Identifier AB_11178519), ERK (monoclonal [mouse], 9107, AB_10695739), phospho-p42/44 ERK1/2 (monoclonal [rabbit], 4370, AB_2315112), phospho-STAT5 (Tyr694; monoclonal [rabbit], 4322, AB_10544692), and STAT5 (monoclonal [rabbit], 9358, AB_659905) were from Cell Signaling Technologies (Danvers, MA) and used at 1:1000 dilution; FGFR3 (monoclonal [rabbit], AB133644, AB_2810262) and FRS2 (polyclonal [rabbit], AB10425, AB_2247176) were from Abcam (Cambridge, UK) and used at 1:2000; and phospho-FRS2 (Tyr436; polyclonal [rabbit], AF5126, AB_2106234) was from R&D Systems (Minneapolis, MN) and used at 1 μg/mL. The pFGFR2 enzyme-linked immunosorbent assay (ELISA) kit was purchased from R&D Systems and ELISA was performed per manufacturer protocol.
Original Western blot images are shown in S1 File (S1 Raw images).

[2] = system: primary T cells from normal donors; conditions: up to 1,500 nM
hERG potassium current = target: T2, hERG potassium current (Homo sapiens, UniProt Q12809); experiment: hERG potassium current (ChanTest); assay type: cell-based; conditions: estimated; precise IC50 not calculated due to compound insolubility; data provided by ChanTest; read-out: IC50 for the inhibitory effect on hERG potassium current
T2 construct: ChanTest Corporation, Cleveland, OH

OPM-2 (myeloma) = experiment: Cell viability assay (CellTiter-Glo); assay type: cell-based; conditions: Homo sapiens, IgH-FGFR3 translocation, 72 hours, read-out: Mean GI50 ± S.D.
PHKG2 = target: T3, PHKG2 (Homo sapiens, UniProt P15735); experiment: Enzyme selectivity panel; assay type: biochemical; conditions: 1 mM ATP
T3 construct: purchased In-house HTRF panel (56 kinases) and PerkinElmer (161-kinase panel)
Procedure: as §1

FLT3 = FLT3 (Homo sapiens, UniProt P36888); experiment: Enzyme selectivity panel; assay type: biochemical; conditions: 1 mM ATP
Procedure: as §1

PIM1 = target: T4, PIM1 (Homo sapiens, UniProt P11309); experiment: Enzyme selectivity panel; assay type: biochemical; conditions: 1 mM ATP
T4 construct: purchased In-house HTRF panel (56 kinases) and PerkinElmer (161-kinase panel)
Procedure: as §1

[3] = Plasma exposure after single oral dose in KATO III tumor-bearing mice; assay type: in vivo, mouse; conditions: single oral dose of 0.1, 1, and 10 mg/kg
Procedure: (A) Pharmacokinetic profile of INCB054828 in the mouse. […] (B) Pharmacokinetic-pharmacodynamic analyses in KATO III tumors. […] Plasma was subjected to analytical analysis and phospho-FGFR2 in tumor homogenate was determined by ELISA.

TF1-BCR-ABL = experiment: Cell viability assay (CellTiter-Glo); assay type: cell-based; conditions: AML/recombinant; lacking FGFR alterations
EGFR = EGFR (Homo sapiens, UniProt P00533); experiment: Enzyme selectivity panel; assay type: biochemical; conditions: 1 mM ATP
Procedure: as §1

PDGFR BETA = target: T5, PDGFR BETA (Homo sapiens, UniProt P09619); experiment: Enzyme selectivity panel; assay type: biochemical; conditions: 1 mM ATP
T5 construct: purchased In-house HTRF panel (56 kinases) and PerkinElmer (161-kinase panel)
Procedure: as §1

PLK3 = PLK3 (Homo sapiens, UniProt Q9H4B4); experiment: Enzyme selectivity panel; assay type: biochemical; conditions: 1 mM ATP
PLK3, sequence (Q9H4B4 whole entry, species assumed): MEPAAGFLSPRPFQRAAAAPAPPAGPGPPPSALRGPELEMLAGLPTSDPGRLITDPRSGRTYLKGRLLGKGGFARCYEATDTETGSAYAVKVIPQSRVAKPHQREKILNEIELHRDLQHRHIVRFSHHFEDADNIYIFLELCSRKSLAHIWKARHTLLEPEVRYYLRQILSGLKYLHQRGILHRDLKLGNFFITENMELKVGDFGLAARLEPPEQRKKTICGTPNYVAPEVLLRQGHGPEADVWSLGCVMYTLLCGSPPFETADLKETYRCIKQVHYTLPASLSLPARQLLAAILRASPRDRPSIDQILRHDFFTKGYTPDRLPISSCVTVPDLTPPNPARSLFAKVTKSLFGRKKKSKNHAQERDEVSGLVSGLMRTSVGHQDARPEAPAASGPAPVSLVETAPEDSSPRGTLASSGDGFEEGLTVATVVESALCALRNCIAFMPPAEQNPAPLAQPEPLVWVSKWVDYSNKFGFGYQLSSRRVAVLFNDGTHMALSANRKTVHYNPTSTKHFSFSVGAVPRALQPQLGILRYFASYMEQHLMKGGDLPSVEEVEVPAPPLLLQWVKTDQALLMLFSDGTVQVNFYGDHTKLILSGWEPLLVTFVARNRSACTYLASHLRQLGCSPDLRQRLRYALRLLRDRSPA
Procedure: as §1

NLK, sequence (Q9UBE8 whole entry): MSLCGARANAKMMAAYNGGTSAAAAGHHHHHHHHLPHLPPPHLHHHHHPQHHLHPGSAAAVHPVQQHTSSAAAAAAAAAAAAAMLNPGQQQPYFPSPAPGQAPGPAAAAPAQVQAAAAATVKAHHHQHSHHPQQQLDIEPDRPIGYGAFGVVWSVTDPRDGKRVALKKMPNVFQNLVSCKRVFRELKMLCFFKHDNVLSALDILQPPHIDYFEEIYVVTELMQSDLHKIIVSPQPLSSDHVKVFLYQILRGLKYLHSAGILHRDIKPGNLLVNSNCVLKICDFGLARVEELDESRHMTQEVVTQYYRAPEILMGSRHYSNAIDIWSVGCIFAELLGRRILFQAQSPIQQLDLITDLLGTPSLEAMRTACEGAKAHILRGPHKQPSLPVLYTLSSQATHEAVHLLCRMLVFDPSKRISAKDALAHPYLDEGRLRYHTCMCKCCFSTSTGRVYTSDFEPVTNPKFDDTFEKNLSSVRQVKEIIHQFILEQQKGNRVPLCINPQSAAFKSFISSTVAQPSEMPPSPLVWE
T1 sequence (P54760 16-987, species assumed): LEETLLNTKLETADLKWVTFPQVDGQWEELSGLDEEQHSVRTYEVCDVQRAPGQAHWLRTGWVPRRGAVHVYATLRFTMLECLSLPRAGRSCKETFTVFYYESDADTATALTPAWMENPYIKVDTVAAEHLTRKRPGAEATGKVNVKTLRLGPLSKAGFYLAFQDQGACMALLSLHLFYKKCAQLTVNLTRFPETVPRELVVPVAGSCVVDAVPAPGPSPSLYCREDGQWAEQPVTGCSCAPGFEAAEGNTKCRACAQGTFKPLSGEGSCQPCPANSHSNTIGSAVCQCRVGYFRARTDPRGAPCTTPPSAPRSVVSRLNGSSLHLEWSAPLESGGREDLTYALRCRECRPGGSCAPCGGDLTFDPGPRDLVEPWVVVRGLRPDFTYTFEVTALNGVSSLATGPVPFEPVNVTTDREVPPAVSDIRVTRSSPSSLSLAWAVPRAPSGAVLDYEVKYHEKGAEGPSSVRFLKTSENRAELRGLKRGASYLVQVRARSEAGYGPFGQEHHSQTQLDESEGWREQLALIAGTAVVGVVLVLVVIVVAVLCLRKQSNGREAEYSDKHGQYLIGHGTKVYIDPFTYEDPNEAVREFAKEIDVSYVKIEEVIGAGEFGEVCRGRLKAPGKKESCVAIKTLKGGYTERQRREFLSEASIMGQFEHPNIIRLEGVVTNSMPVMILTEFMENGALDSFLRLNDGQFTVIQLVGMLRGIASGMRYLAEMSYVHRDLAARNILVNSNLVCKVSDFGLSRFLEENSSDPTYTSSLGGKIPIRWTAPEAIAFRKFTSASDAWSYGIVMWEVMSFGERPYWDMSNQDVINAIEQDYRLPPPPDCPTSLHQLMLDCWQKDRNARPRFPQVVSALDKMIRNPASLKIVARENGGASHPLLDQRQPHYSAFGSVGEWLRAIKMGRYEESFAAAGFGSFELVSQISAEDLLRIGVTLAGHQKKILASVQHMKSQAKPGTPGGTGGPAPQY
T2 sequence (Q12809 whole entry): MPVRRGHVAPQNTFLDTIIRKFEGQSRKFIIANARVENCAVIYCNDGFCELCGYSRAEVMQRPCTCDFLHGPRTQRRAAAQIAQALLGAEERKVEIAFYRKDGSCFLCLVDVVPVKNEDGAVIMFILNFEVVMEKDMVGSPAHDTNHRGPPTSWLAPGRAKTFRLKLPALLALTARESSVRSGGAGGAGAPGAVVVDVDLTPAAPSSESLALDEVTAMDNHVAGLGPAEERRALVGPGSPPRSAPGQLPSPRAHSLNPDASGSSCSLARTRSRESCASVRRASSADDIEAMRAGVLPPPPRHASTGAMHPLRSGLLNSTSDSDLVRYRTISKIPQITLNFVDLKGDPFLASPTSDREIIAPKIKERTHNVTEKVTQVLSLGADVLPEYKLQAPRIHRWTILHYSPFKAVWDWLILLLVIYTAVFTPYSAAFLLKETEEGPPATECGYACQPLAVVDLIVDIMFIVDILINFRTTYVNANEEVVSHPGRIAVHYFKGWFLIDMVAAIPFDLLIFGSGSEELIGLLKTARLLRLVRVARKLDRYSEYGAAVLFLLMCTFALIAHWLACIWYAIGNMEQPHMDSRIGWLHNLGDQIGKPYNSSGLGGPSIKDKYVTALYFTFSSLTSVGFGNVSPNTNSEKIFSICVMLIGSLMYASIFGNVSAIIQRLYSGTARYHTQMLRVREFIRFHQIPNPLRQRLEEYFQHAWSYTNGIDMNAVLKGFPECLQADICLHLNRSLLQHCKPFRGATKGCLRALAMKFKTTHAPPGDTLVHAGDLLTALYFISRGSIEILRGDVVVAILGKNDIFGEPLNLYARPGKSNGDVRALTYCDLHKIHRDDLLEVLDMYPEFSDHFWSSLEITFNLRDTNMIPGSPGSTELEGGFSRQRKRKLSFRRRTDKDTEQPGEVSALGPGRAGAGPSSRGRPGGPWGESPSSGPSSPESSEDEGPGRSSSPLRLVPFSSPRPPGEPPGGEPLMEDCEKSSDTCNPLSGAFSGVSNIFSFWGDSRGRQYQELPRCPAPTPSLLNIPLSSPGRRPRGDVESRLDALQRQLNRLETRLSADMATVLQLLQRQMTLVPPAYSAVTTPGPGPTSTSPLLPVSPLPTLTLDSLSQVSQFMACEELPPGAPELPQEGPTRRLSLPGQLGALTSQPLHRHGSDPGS
JNK1, sequence (P45983 whole entry, species assumed): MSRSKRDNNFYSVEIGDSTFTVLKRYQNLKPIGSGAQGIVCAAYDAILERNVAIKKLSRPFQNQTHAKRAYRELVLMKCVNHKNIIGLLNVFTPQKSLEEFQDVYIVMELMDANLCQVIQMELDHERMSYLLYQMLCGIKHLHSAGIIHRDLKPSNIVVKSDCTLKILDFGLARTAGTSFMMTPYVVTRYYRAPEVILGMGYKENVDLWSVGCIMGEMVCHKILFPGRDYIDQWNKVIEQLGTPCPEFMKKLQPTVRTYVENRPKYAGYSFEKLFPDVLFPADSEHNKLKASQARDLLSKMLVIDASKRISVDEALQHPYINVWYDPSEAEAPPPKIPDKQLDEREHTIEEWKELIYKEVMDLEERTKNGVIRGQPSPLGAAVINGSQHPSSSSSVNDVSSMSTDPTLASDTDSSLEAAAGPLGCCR
FLT3, sequence (P36888 27-993, species assumed): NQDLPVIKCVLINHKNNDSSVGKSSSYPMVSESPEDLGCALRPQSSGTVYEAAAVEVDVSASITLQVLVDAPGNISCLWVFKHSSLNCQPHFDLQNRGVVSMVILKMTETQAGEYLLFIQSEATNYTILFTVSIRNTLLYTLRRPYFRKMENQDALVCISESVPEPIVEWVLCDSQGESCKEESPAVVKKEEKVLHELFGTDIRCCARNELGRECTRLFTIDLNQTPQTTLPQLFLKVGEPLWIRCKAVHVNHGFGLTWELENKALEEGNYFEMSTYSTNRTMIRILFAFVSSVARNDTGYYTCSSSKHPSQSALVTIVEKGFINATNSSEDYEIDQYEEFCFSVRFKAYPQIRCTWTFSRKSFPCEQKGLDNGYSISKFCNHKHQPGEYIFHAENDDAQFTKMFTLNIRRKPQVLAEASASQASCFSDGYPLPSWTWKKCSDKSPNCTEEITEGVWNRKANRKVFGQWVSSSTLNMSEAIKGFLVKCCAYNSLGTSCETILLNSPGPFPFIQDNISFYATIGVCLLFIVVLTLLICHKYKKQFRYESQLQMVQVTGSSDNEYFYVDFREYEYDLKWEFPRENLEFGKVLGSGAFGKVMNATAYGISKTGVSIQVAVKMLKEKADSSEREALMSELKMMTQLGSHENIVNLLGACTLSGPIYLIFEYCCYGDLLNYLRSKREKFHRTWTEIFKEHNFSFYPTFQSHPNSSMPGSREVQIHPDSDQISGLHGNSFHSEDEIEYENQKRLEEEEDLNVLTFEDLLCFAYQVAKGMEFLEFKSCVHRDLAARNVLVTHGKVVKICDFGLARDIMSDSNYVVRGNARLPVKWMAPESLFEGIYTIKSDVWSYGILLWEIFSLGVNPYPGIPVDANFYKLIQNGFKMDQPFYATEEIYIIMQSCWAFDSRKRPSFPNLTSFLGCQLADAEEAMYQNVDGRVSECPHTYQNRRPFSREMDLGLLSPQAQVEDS
T4 sequence (P11309 whole entry, species assumed): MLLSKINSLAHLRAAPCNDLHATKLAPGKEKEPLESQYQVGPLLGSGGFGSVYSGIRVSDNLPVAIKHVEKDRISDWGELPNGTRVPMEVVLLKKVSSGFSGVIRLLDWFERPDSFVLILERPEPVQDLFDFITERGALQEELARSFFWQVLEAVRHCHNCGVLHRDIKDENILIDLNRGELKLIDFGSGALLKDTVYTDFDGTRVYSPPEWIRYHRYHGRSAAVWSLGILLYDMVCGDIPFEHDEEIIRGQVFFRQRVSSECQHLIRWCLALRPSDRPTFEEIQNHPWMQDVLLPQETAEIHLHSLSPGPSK

CCN1C(=O)N(c2c(F)c(OC)cc(OC)c2F)Cc2cnc3[nH]c(CN4CCOCC4)cc3c21 [INCB054828, pemigatinib]
IC50 (NLK): > 10 µM | IC50 (JNK1): > 10 µM | IC50 (MINK): > 10 µM | IC50 (EPHB4): > 10 µM | levels of phospho-FRS2 and phospho-ERK [1]: strongly suppresses | inhibition of the proliferation of primary T cells [2]: no inhibition | IC50 (hERG potassium current): > 8 µM | GI50 (OPM-2 (myeloma)): 0.018 ± 0.009 µM | IC50 (PHKG2): > 10 µM | IC50 (FLT3): > 10 µM | IC50 (PIM1): > 10 µM | plasma exposures, dose dependence [3]: dose linear | GI50 (TF1-BCR-ABL): > 5 µM | IC50 (EGFR): > 10 µM | IC50 (PDGFR BETA): 1.79 µM | IC50 (PLK3): > 10 µM
